Test systems include A498 renal; CCRF-CEM leukemia; HCT-116 colon; HT29 colon; LOX IMVI melanoma; NCI-H522 lung; OVCAR-5 ovarian; SK-MEL-2 melanoma; SK-OV-3 ovarian; UO-31 renal.
Experiment in all cases: inhibition of tumour cell growth, NCI panel, 48 h

Several values for one entry are separate records, joined by “and”; a condition that tells them apart may be missing. Equal values may be shown once.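 Dose response: 5 concentrations. Exposure: 48 h. Format: 96-well plates. Endpoint: linear interpolation; highest concentration if not reached. Here, GI50 denotes the concentration required for 50% inhibition of growth. TGI is the concentration that stops growth completely.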 Where only a bound is given, the exact number is not on record here.

We go through eight molecules from PubChem BioAssay (NCI).

Regarding `COC1C(O)C(C)OC(OC2C(Oc3cccc4c(O)c5c(=O)oc6ccc(C)c7c(=O)oc(c34)c5c67)OC(C)C3O[C@H](c4ccccc4)OC32)C1O` (stereo partly drawn), the TGI turned out to be 1.11 µM in the assay on A498 renal; 8.82 µM with CCRF-CEM leukemia; 3.64 µM in the assay on HCT-116 colon; 10.2 µM with HT29 colon; 1.72 µM with LOX IMVI melanoma; 6.78 µM with NCI-H522 lung. Also, the TGI in the assay with OVCAR-5 ovarian was determined as 12.7 µM; in the assay with SK-MEL-2 melanoma, 6.07 µM; in the assay with SK-OV-3 ovarian it was 7.94 µM; in the assay on UO-31 renal it was 2.43 µM. Besides, the GI50 was 0.0752 µM and 0.0731 µM with CCRF-CEM leukemia; 0.0528 µM and 0.0292 µM in the assay on HCT-116 colon; 0.199 µM and 0.048 µM with LOX IMVI melanoma; 0.284 µM and 0.262 µM with NCI-H522 lung; 0.937 µM in the assay with SK-MEL-2 melanoma.
As for `C=C1C(=O)O[C@H]2[C@H]1CC/C(Cn1cc(CNCCc3c[nH]c4ccc(Cl)cc34)nn1)=C\CC[C@@]1(C)O[C@@H]21`, the GI50 in the assay with A498 renal was 12.8 µM; with CCRF-CEM leukemia, 1.72 µM; in the assay with HCT-116 colon it was 3.31 µM; in the assay on HT29 colon it was 3.32 µM; with LOX IMVI melanoma, 3.56 µM; in the assay on NCI-H522 lung, 1.58 µM. The GI50 in the assay on OVCAR-5 ovarian was 11.5 µM; in the assay on SK-MEL-2 melanoma, 10.3 µM; in the assay on SK-OV-3 ovarian, 35 µM; with UO-31 renal, 6.23 µM. For the same molecule, the TGI in the assay with A498 renal worked out at 34.5 µM; in the assay on CCRF-CEM leukemia, 5.08 µM; in the assay with HCT-116 colon, 10 µM; in the assay on HT29 colon, 11.2 µM; in the assay on LOX IMVI melanoma, 16 µM; with NCI-H522 lung, 3.12 µM. In addition, the TGI is 26.7 µM in the assay on OVCAR-5 ovarian, 26.1 µM in the assay on SK-MEL-2 melanoma, > 100 µM in the assay on SK-OV-3 ovarian and 19.4 µM in the assay with UO-31 renal.
For `COc1cc(/C=N/Nc2ncnc3c2cnn3C(C)C)ccc1O`, the GI50 in the assay with A498 renal is 8.58 µM; with CCRF-CEM leukemia, 8.07 µM; in the assay with HCT-116 colon, 8.02 µM; in the assay on HT29 colon, 8.18 µM; with LOX IMVI melanoma, 3.79 µM; in the assay with NCI-H522 lung, 6.78 µM. The GI50 is 8.83 µM with OVCAR-5 ovarian, 6.82 µM in the assay with SK-MEL-2 melanoma, 10.1 µM in the assay on SK-OV-3 ovarian and 3.56 µM in the assay on UO-31 renal. Besides, the TGI is 24.8 µM in the assay on A498 renal; > 23.1 µM in the assay with CCRF-CEM leukemia; > 25 µM in the assay on HCT-116 colon; > 25 µM with HT29 colon; > 13.7 µM in the assay on LOX IMVI melanoma; > 25 µM in the assay on NCI-H522 lung. The TGI in the assay on OVCAR-5 ovarian is > 25 µM; in the assay on SK-MEL-2 melanoma, 18.7 µM; in the assay on SK-OV-3 ovarian, > 25 µM; with UO-31 renal, 17.3 µM.
With `COc1cc([N+](=O)[O-])c(S(=O)(=O)O)cc1NS(=O)(=O)c1ccc(C)cc1`, the TGI in the assay with A498 renal, in the assay with CCRF-CEM leukemia, in the assay on HCT-116 colon, in the assay on HT29 colon, in the assay with LOX IMVI melanoma and in the assay with NCI-H522 lung was > 100 µM throughout. The TGI in the assay on OVCAR-5 ovarian, with SK-MEL-2 melanoma, in the assay with SK-OV-3 ovarian and in the assay with UO-31 renal was > 100 µM throughout.
As to `CCN(CC)C(=O)CC1=C(C)/C(=C/c2[nH]c(-c3ccc[nH]3)cc2OC)N=C1C`, the GI50 in the assay on A498 renal is 0.98 µM; in the assay with CCRF-CEM leukemia it was 0.258 µM; in the assay on HCT-116 colon it was 0.286 µM; with HT29 colon it was 0.287 µM; with LOX IMVI melanoma, 0.199 µM; with NCI-H522 lung it was 0.456 µM. The GI50 with OVCAR-5 ovarian was 5.19 µM; in the assay with SK-MEL-2 melanoma, 0.275 µM; in the assay on SK-OV-3 ovarian it was 0.658 µM; in the assay with UO-31 renal, 0.554 µM. Moreover, the TGI with A498 renal came to 7.12 µM; in the assay with CCRF-CEM leukemia, 35 µM; with HCT-116 colon, 10.3 µM; in the assay with HT29 colon it was 48.3 µM; with LOX IMVI melanoma, 0.513 µM; in the assay with NCI-H522 lung, 14 µM. Also, the TGI amounted to 60.9 µM with OVCAR-5 ovarian, 0.799 µM in the assay on SK-MEL-2 melanoma, 8.3 µM in the assay on SK-OV-3 ovarian and 2.5 µM in the assay with UO-31 renal.
As to `CCNC(C)(C)C(SS)c1ccc(Br)cc1` (stereo not drawn), the TGI in the assay with A498 renal is > 100 µM; with CCRF-CEM leukemia it was 60 µM; in the assay on HCT-116 colon, > 100 µM; in the assay with HT29 colon, 69.3 µM; with LOX IMVI melanoma it was 60.1 µM; in the assay with NCI-H522 lung, 35.1 µM. For the same molecule, the TGI with OVCAR-5 ovarian, with SK-MEL-2 melanoma, in the assay with SK-OV-3 ovarian and in the assay on UO-31 renal was > 100 µM each time.
Consider `NC(=O)c1cc(-c2ccncc2)cc(-c2ccccc2)c1N`, for which the GI50 with A498 renal is 4.64 µM; in the assay on CCRF-CEM leukemia it was > 25 µM; with HCT-116 colon it was > 24 µM; in the assay with HT29 colon, > 25 µM; in the assay on LOX IMVI melanoma, > 22.7 µM; with NCI-H522 lung, 7.68 µM. In addition, the GI50 is > 25 µM with OVCAR-5 ovarian, > 5.2 µM in the assay on SK-MEL-2 melanoma, 11.5 µM in the assay with SK-OV-3 ovarian and 6.41 µM in the assay on UO-31 renal. Moreover, the TGI is 21.9 µM in the assay with A498 renal; > 25 µM with CCRF-CEM leukemia; > 25 µM with HCT-116 colon; > 25 µM in the assay on HT29 colon; > 25 µM in the assay with LOX IMVI melanoma; > 15.8 µM in the assay with NCI-H522 lung. For the same molecule, the TGI in the assay with OVCAR-5 ovarian is > 25 µM; with SK-MEL-2 melanoma, > 17 µM; in the assay on SK-OV-3 ovarian it was > 25 µM; with UO-31 renal, > 25 µM.
As for `COC(=O)CCC(C)[C@H]1CCC2C3C(C[C@H](OC(C)=O)[C@@]21C)[C@@]1(C)CCC2(C[C@H]1C[C@H]3OC(C)=O)OOC1(CCC(C)CC1)OO2` (stereo partly drawn), the TGI in the assay with A498 renal, with CCRF-CEM leukemia, in the assay with HCT-116 colon, with HT29 colon, in the assay with LOX IMVI melanoma and in the assay with NCI-H522 lung was > 100 µM in each case. The TGI in the assay on OVCAR-5 ovarian is > 100 µM; in the assay on SK-MEL-2 melanoma, > 100 µM; with SK-OV-3 ovarian it was > 100 µM; in the assay with UO-31 renal, 17.8 µM and 36.4 µM. In addition, the GI50 is 6.16 µM and 14.6 µM in the assay on NCI-H522 lung; 21.9 µM and 64.9 µM with SK-MEL-2 melanoma; 4.13 µM and 11.2 µM in the assay with UO-31 renal.
